According to US8987209B2, “N-carboxyalkyl-auristatin and the use thereof” (Seattle Genetics, Inc., priority 2010, dated 2015):
Square brackets hold non-standard residues; d marks the D form. Peptide text beside a SMILES is read from it. * marks the point of attachment. NMeVal(N-(CH2)3COOH) = CC(C)[C@@H](C(=O)*)N(C)CCCC(=O)O; Dolaproine = CO[C@@H]([C@@H]1CCCN1)[C@@H](C)C(=O)O; Dil = CC[C@H](C)[C@H](NC)[C@@H](CC(=O)O)OC; X3 = CC(C)[C@@H](C(=O)*)N(C)CCCCCC(=O)O; Morpholide = C1CN(*)CCO1; X1 = O=C(NN*)c1ccccc1; NHBn = c1ccc(CN*)cc1; OBn = c1ccc(CO*)cc1

Key:
[1] = Cell permeability, flux assay using Caco-2 cells; format: in vitro ADME; conditions: human, basal to apical, 2 hours incubation
Description: B-5. Determination of Cell Permeability:
The cell permeability of a substance can be analyzed by means of in vitro tests in a flux assay using Caco-2-cells [M. D. Troutman and D. R. Thakker, Pharm. Res. 20 (8), 1210-1224 (2003)]. For this analysis the cells were cultured on 24 membrane filter plates for 15 to 16 days. In order to determine permeation the test substance in question was given either apical (A) to a HEPES buffer or basal (B) on the cells and incubated for 2 hours. The samples were withdrawn after 0 and 2 hours from the cis and trans compartments. The samples were separated by means of HPLC (Agilent 1200, Böblingen, Germany) using reverse-phase columns. The HPLC system was coupled to a triple quadropol mass spectrometer API 4000 (Applied Biosystems Applera, Darmstadt, Germany) via a turbo ion spray. The permeability was evaluated by means of the Papp value which was calculated with the help of the formula published by Schwab et al. [D. Schwab et al., J. Med. Chem. 46, 1716-1725 (2003)]. A substance was classified as active if the ratio of Papp (B-a) to Papp (A-B) was >2 or <0.5.
The permeability from B to A [Papp^(B-A)] is particularly important for toxophores which are being released intracellular: The lower the permeability the longer the residence time of the substance in the cell after intracellular release and, consequently, the more time available for interaction with the biochemical target (here: tubulin).

[2] = test system: human renal carcinoma cell line 786-0; experiment: Anti-proliferative effect on renal cell carcinoma 786-0 cell line (MTT assay); format: cell-based; conditions: Homo sapiens, 786-0 cells, incubation 48 to 96 hours, serum free medium or 2% FCS
Description: B-1. Determination of Anti-proliferative Effects of Renal Cell Carcinoma 786-0 Cell Line:
A defined number of cells of the human renal carcinoma cell line 786-0 were cultured in a 96 well micro titer plate in rich medium (2500 or 7.000 cells/well) and then incubated over night at 37° C./5% CO2. After 18 hours the seed medium was replaced by a serum free medium or medium with 2% FCS. The treatment began with measuring out the respective test substances in varying concentrations (10^−5 M to 10^−14 M). Incubation times of between 48 hours and 96 hours were chosen. The proliferation was determined by means of the MTT assay (ATCC, Manassas, Va., USA, catalogue no. 30-1010K). After completion of incubation period the MTT reagent was incubated with the cells for 4 hours before lysis occurred over night by measuring out the detergent. The created stain was detected at 570 nm. The proliferation of the cells, which were treated identically to the other cells but without the test substance was defined as the 100% value. The data obtained from this test represent triple determinations and at least two experiments had been carried out independently of each other.

HT-29 wt cell line = experiment: Anti-proliferative effect on HT-29 wt cell line (MTT assay); format: cell-based, human; conditions: Homo sapiens, HT-29 wt cells, incubation 48 to 96 hours, medium with 10% FCS
Description: B-2. Determination of Anti-proliferative Effects of HT-29 wt Cell Line:
After 18 hours the seed medium was replaced by a fresh medium with 10% FCS. The treatment started with measuring out the respective test substance. The dose-response curves were determined of the investigative substances with a concentration of 10^−5 M to 10^−14 M (1:10 dilutions). Incubation times of between 48 hours and 96 hours were chosen. The proliferation was detected by means of the MTT assay (ATCC, Manassas, Va., USA, catalogue no. 30-1010K). After completion of selected incubation period the MTT reagent was incubated with the cells for 4 hours before lysis occurred over night by measuring out the detergent. The created stain was detected at 570 nm. The proliferation of the cells, which were treated identically to the other cells but without the test substance, was defined as the 100% value. The data obtained from this test represent triple determinations and at least two experiments had been carried out independently of each other.

SMILES	Papp B→A at 2 h [1]	IC50 [2]	IC50 (HT-29 wt cell line)
CC[C@H](C)[C@@H]([C@@H](CC(=O)N1CCC[C@H]1[C@H](OC)[C@@H](C)C(=O)N[C@@H](Cc1ccccc1)C(=O)OC)OC)N(C)C(=O)[C@@H](NC(=O)[C@H](C(C)C)N(C)CCCC(=O)O)C(C)C [Example 7] ({NMeVal(N-(CH2)3COOH)}-V[Dil][Dolaproine]F-OMe)	1.8 ×10⁻⁶ cm/s	–	–
CC[C@H](C)[C@@H]([C@@H](CC(=O)N1CCC[C@H]1[C@H](OC)[C@@H](C)C(=O)N[C@@H](Cc1c[nH]c2ccccc12)C(=O)OCc1ccccc1)OC)N(C)C(=O)[C@@H](NC(=O)[C@H](C(C)C)N(C)CCCC(=O)O)C(C)C [Example 8, N-(3-carboxypropyl)-N-methyl-L-valyl-N-[(3R,4S,5S)-1-{(2S)-2-[(1R,2R)-3-{[(2S)-1-(benzyloxy)-3-(1H-indol-3-yl)-1-oxopropane-2-yl]amino}-1-methoxy-2-methyl-3-oxopropyl]pyrrolidin-1-yl}-3-methoxy-5-methyl-1-oxoheptan-4-yl]-N-methyl-L-valinamide] ({NMeVal(N-(CH2)3COOH)}-V[Dil][Dolaproine]W-OBn)	2.2 ×10⁻⁶ cm/s	5.2 nM	0.5 nM
CCCNC(=O)[C@]1(NC(=O)[C@H](C)[C@@H](OC)[C@@H]2CCCN2C(=O)C[C@@H](OC)[C@H]([C@@H](C)CC)N(C)C(=O)[C@@H](NC(=O)[C@H](C(C)C)N(C)CCCC(=O)O)C(C)C)C[C@@H]1c1ccccc1 [Example 11, N-(3-carboxypropyl)-N-methyl-L-valyl-N-[(3R,4S,5S)-3-methoxy-1-{(2S)-2-[(1R,2R)-1-methoxy-2-methyl-3-oxo-3-{[(1S,2R)-2-phenyl-1-(propylcarbamoyl)cyclopropyl]amino}propyl]pyrrolidin-1-yl}-5-methyl-1-oxoheptan-4-yl]-N-methyl-L-valinamide]	1.1 ×10⁻⁶ cm/s	6.7 nM	0.8 nM
CCOC(=O)[C@]1(NC(=O)[C@H](C)[C@@H](OC)[C@@H]2CCCN2C(=O)C[C@@H](OC)[C@H]([C@@H](C)CC)N(C)C(=O)[C@@H](NC(=O)[C@H](C(C)C)N(C)CCCC(=O)O)C(C)C)C[C@@H]1c1ccccc1 [Example 12, N-(3-carboxypropyl)-N-methyl-L-valyl-N-[(3R,4S,5S)-1-{(2S)-2-[(1R,2R)-3-{[(1S,2R)-1-(ethoxycarbonyl)-2-phenylcyclopropyl]amino}-1-methoxy-2-methyl-3-oxopropyl]pyrrolidin-1-yl}-3-methoxy-5-methyl-1-oxoheptan-4-yl]-N-methyl-L-valinamide]	1.5 ×10⁻⁶ cm/s	13 nM	–
CC[C@H](C)[C@@H]([C@@H](CC(=O)N1CCC[C@H]1[C@H](OC)[C@@H](C)C(=O)N[C@@H](Cc1ccccc1)C(N)=O)OC)N(C)C(=O)[C@@H](NC(=O)[C@H](C(C)C)N(C)CCCC(=O)O)C(C)C [Example 13, N-(3-carboxypropyl)-N-methyl-L-valyl-N-[(3R,4S,5S)-1-{(2S)-2-[(1R,2R)-3-{[(2S)-1-amino-1-oxo-3-phenylpropan-2-yl]amino}-1-methoxy-2-methyl-3-oxopropyl]pyrrolidin-1-yl}-3-methoxy-5-methyl-1-oxoheptan-4-yl]-N-methyl-L-valinamide] ({NMeVal(N-(CH2)3COOH)}-V[Dil][Dolaproine]F-NH2)	1 ×10⁻⁶ cm/s	12.5 nM	1 nM
CC[C@H](C)[C@@H]([C@@H](CC(=O)N1CCC[C@H]1[C@H](OC)[C@@H](C)C(=O)N[C@@H](Cc1ccccc1)C(=O)NNC(=O)c1ccccc1)OC)N(C)C(=O)[C@@H](NC(=O)[C@H](C(C)C)N(C)CCCC(=O)O)C(C)C [Example 14, (3R,4S,7S,10S)-3-(2-{(2S)-2-[(1R,2R)-3-{[(2S)-1-(2-benzoylhydrazino)-1-oxo-3-phenylpropane-2yl]amino}-1-methoxy-2-methyl-3-oxopropyl]pyrrolidin-1-yl}-2-oxoethyl)-4-[(2S)-butane-2-yl]-7,10-diisopropyl-5,11-dimethyl-6,9-dioxo-2-oxa-5,8,11-triazapentadecan-15-acid] ({NMeVal(N-(CH2)3COOH)}-V[Dil][Dolaproine]F-X1)	0.3 ×10⁻⁶ cm/s	59 nM	–
CC[C@H](C)[C@@H]([C@@H](CC(=O)N1CCC[C@H]1[C@H](OC)[C@@H](C)C(=O)N[C@@]1(C(N)=O)C[C@@H]1c1ccccc1)OC)N(C)C(=O)[C@@H](NC(=O)[C@H](C(C)C)N(C)CCCC(=O)O)C(C)C [Example 17, N-(3-carboxypropyl)-N-methyl-L-valyl-N-[(3R,4S,5S)-1-{(2S)-2-[(1R,2R)-3-{[(1S,2R)-1-carbamoyl-2-phenylcyclopropyl]amino}-1-methoxy-2-methyl-3-oxopropyl]pyrrolidin-1-yl}-3-methoxy-5-methyl-1-oxoheptan-4-yl]-N-methyl-L-valinamide]	0.2 ×10⁻⁶ cm/s	–	–
CC[C@H](C)[C@@H]([C@@H](CC(=O)N1CCC[C@H]1[C@H](OC)[C@@H](C)C(=O)N[C@@H](Cc1c[nH]c2ccccc12)C(N)=O)OC)N(C)C(=O)[C@@H](NC(=O)[C@H](C(C)C)N(C)CCCCCC(=O)O)C(C)C [Example 19] (X3-V[Dil][Dolaproine]W-NH2)	0.2 ×10⁻⁶ cm/s	–	–
CC[C@H](C)[C@@H]([C@@H](CC(=O)N1CCC[C@H]1[C@H](OC)[C@@H](C)C(=O)N[C@@H](Cc1ccccc1)C(=O)N1CCOCC1)OC)N(C)C(=O)[C@@H](NC(=O)[C@H](C(C)C)N(C)CCCC(=O)O)C(C)C [Example 23, N-(3-carboxypropyl)-N-methyl-L-valyl-N-[(3R,4S,5S)-3-methoxy-1-{(2S)-2-[(1R,2R)-1-methoxy-2-methyl-3-{[(2S)-1-(morpholin-4-yl)-1-oxo-3-phenylpropane-2-yl]amino}-3-oxopropyl]pyrrolidin-1-yl}-5-methyl-1-oxoheptan-4-yl]-N-methyl-L-valinamide] ({NMeVal(N-(CH2)3COOH)}-V[Dil][Dolaproine]F-Morpholide)	0.2 ×10⁻⁶ cm/s	–	–
CC[C@H](C)[C@@H]([C@@H](CC(=O)N1CCC[C@H]1[C@H](OC)[C@@H](C)C(=O)N[C@H](C(=O)NCc1ccccc1)[C@@H](C)O)OC)N(C)C(=O)[C@@H](NC(=O)[C@H](C(C)C)N(C)CCCC(=O)O)C(C)C [Example 25, N-(3-carboxypropyl)-N-methyl-L-valyl-N-[(3R,4S,5S)-1-{(2S)-2-[(1R,2R)-3-{[(2S,3R)-1-(benzylamino)-3-hydroxy-1-oxobutane-2-yl]amino}-1-methoxy-2-methyl-3-oxopropyl]pyrrolidin-1-yl}-3-methoxy-5-methyl-1-oxoheptan-4-yl]-N-methyl-L-valinamide] ({NMeVal(N-(CH2)3COOH)}-V[Dil][Dolaproine]T-NHBn)	–	164 nM	1.5 nM
CC[C@H](C)[C@@H]([C@@H](CC(=O)N1CCC[C@H]1[C@H](OC)[C@@H](C)C(=O)N[C@H](COCc1ccc(C(=O)OC)cc1)Cc1ccccc1)OC)N(C)C(=O)[C@@H](NC(=O)[C@H](C(C)C)N(C)CCCC(=O)O)C(C)C [Example 26, N-(3-carboxypropyl)-N-methyl-L-valyl-N-[(3R,4S,5S)-3-methoxy-1-{(2S)-2-[(1R,2R)-1-methoxy-3-{[(2S)-1-{[4-(methoxycarbonyl)benzyl]oxy}-3-phenylpropane-2-yl]amino}-2-methyl-3-oxopropyl]pyrrolidin-1-yl}-5-methyl-1-oxoheptan-4-yl]-N-methyl-L-valinamide]	–	10 nM	1.5 nM
